Biological target: TPI (triosephosphate isomerase), recombinant
Experiment: isothermal titration calorimetry
Type: binding
Settings: 100 μM TPI, 1 mM palmitic amide; DMSO control

Kd: 4.89 ± 1.23 µM
SMILES: CCCCCCCCCCCCCCCC(N)=O [palmitic amide]
